Measurements as given in patent US12138398B2, “Methods and devices for providing a stimulus to a subject to induce gamma oscillations” (Massachusetts Institute of Technology, priority 2015, dated 2024).
Several values for one entry are separate records, joined by “and”; a condition that tells them apart may be missing. Equal values may be shown once. Read-outs that look alike come from different tables or passages of the source.

Experiments:
[1] = test system: AD patients; settings: cited from earlier work
[2] = test system: organotypic hippocampal slices prepared from transgenic (Tg) mice overexpressing APP; settings: cited from earlier work
[3] = test system: Aβ1-40 and Aβ1-42 levels in 5×FAD visual cortex; assay: Aβ ELISA of visual cortex after one hour 40-Hz light flicker with picrotoxin pretreatment; assay type: in vivo, mouse
Text: FIGS. 47A and 47B are bar graphs depicting changes in baseline levels of Aβ1-40 and Aβ1-42, respectively, in 5×FAD visual cortex in dark, light, 40-Hz flicker, 20-Hz flicker, 80-Hz flicker, 40-Hz flicker with picrotoxin (PTX) and Random flicker conditions in accordance with some embodiments (n=12 mice per group for dark; n=6 mice per group for light, 40-Hz flicker, 20-Hz flicker, 80-Hz flicker, and PTX; n=4 mice per group for Random flicker; “n.s.” indicates not significant, one asterisk indicates p<0.05, and two asterisks indicate p<0.01 by one-way ANOVA). FIGS. 47 and 47B show mean and SEM. Circles superimposed on bars in the bar graphs indicate individual data points in each group. Following one hour after light exposure, it was observed that Aβ1-40 levels in visual cortex were reduced by 57.96% and Aβ1-42 levels by 57.97% compared to the dark condition (as measured by Aβ ELISA, see, e.g., FIGS. 47A and 47B, p<0.05 by one-way ANOVA, n=6 mice per group). Compared to light controls, amyloid levels were reduced by 62.47% (Aβ1-40) and 68.55% (Aβ1-42) following one hour of 40-Hz flicker (as measured by Aβ ELISA, see, e.g., FIG. 4′7, p<0.05 by one-way ANOVA, n=6 mice per group). […]
Fifteen minutes prior to the experiment 5×FAD mice were treated with saline (Control) or picrotoxin (0.18 mg/kg). For molecular and biochemical analyses mice were then placed in a dark chamber illuminated by an LED bulb and exposed to one of five stimulation conditions: dark, light, 20-Hz flicker, 40-Hz flicker, or 80-Hz flicker (12.5 ms light on, 12.5 ms light off) for one hour (see, e.g., FIG. 43A). For electrophysiological recordings each animal received dark, light, 40-Hz flicker, or random (light pulses were delivered with a random interval determined by a Poisson process with an average interval of 40 Hz) stimulation conditions interleaved in 10 s blocks during recordings. […]

[4] = 5×FAD visual cortex (VC), 40 Hz flicker one hour + PTX (0.18 mg/kg pretreatment), ELISA dilution 1:2, individual mice

Question: For `COc1cc2c(cc1OC)C(=O)C(CC1CCN(Cc3ccccc3)CC1)C2` (stereo not drawn) [donepezil], which “clinical outcome on cognition” value ([1]; human, in vivo) is on record?
Answer: Its value is “only mild cognitive benefits”.

Question: For `CCN(C)C(=O)Oc1cccc([C@H](C)N(C)C)c1` [rivastigmine], which “clinical outcome on cognition” value ([1]; AD subjects) is on record?
Answer: The value was “only mild cognitive benefits”.

Question: For `CC(C)[C@H](O)C(=O)N[C@@H](C)C(=O)N[C@@H]1C(=O)N(C)CCc2ccccc21` [semagacestat], which “clinical outcome on cognition” value ([1]; AD subjects) is on record?
Answer: The value was “worsening of cognitive deficits”.

Question: Which Aβ levels [2] does the source give for `NC1=N[C@H](O)[C@H]2[C@H]3O[C@]4(O)O[C@@H]([C@@H](O)[C@@]2(N1)[C@@H]4O)[C@]3(O)CO` [tetrodotoxin] here?
Answer: The Aβ levels was “decreased”.

Question: What about the neuronal activity [2] of the same compound?
Answer: Its neuronal activity is “decreased”.

Question: With picrotoxin [PTX] as the compound, how does the neuronal activity ([2]; organotypic hippocampal slices, APP Tg mice) read?
Answer: The neuronal activity was “increased neuronal activity”.

Question: And the “effects of 40-Hz flicker on Aβ levels after picrotoxin pretreatment” value ([3]; 5×FAD mice, picrotoxin 0.18 mg/kg)?
Answer: Its value is “completely abrogated”.

Question: And the “Average Aβ1-40 Concentration” value [3, 4]?
Answer: The value was 367.2 pg/ml and 431.4 pg/ml and 445.2 pg/ml (2×) and 392.4 pg/ml and 386.7 pg/ml.

Question: And the Aβ1-42 concentration [3, 4]?
Answer: The Aβ1-42 concentration was 396.6 pg/ml and 540.5 pg/ml and 532.7 pg/ml and 705.0 pg/ml and 104.5 pg/ml (2×).
